Read-outs that look alike come from different tables or passages of the source.
Experiments:
Assay in all cases: Disk diffusion assay (zone of inhibition)
Assay type in all cases: cell-based
MRSA NRS121 = conditions: Staphylococcus aureus, read-out: Zone diameter (mm ± SD), NRS121; 360 μg in 5% P80; Experiment 2, disks stored 8 days; 3 h prediffusion at room temperature
From the text: (§1) The study was designed to identify conditions that improve oritavancin diffusion in agar and consequently yield a zone diameter ≧15 mm for the CLSI quality control strain MSSA ATCC 25923. Excipients that increased the disk diffusion of oritavancin in agar relative to disks containing only oritavancin were identified and selected for further study. […] A prediffusion step at room temperature was introduced to maximize oritavancin diffusion prior to initiation of bacterial growth. In this step, the antimicrobial disks were placed on agar plates seeded with a bacterial isolate and incubated at room temperature for 3 hours. Plates were then incubated overnight at 37° C. Zone diameters around the disks in which bacterial growth was inhibited were measured with a ruler and reported in millimeters.
(§2) Ethanol-sterilized Whatman paper disks (6 mm diameter) were allowed to dry then impregnated with 20 microliters of oritavancin solution containing total amounts ranging from 90 to 360 micrograms. Disks were allowed to dry at room temperature for various times prior to use.
(§3) Bacterial suspensions were prepared and adjusted to an optical density of 0.1 at 600 nm. Standard cation-adjusted Mueller Hinton agar plates (90 mm diameter) were seeded with bacterial suspensions by initially swabbing the center of plate then moving outward towards the edge. The plate was swabbed a second time, perpendicular to the orientation of the first swab. To assess the impact of prediffusion on diameter of inhibition zones, two disks were immediately placed on one half of the plate and the plate was incubated for 3 hours at room temperature. After 3 hours, two additional disks were placed on the other half of the plate then the plate was incubated overnight at 37° C. Zone diameters were measured with a ruler and reported in millimeters.

MRSA NRS123-ORI^RS = conditions: Staphylococcus aureus, read-out: Zone diameter (mm ± SD)
From the text: as §1, §2, §3

MSSA T972018 = conditions: Staphylococcus aureus, read-out: Zone diameter (mm ± SD)
From the text: as §1, §2, §3

MRSA NRS123 = conditions: Staphylococcus aureus; for zone of inhibition at 90 µg/disc: 90 μg oritavancin; for zone of inhibition at 180 µg/disc: 180 μg oritavancin
From the text: as §1, §2, §3

MRSA NRS121-ORI^RS = conditions: Staphylococcus aureus, read-out: Zone diameter (mm ± SD)
From the text: as §1, §2, §3

[1] = 360 μg in 5% P80, Average, no prediffusion
[2] = 360 μg in 5% P80, Average, prediffusion
[3] = 360 μg in 5% P80, Experiment 2, disks stored 8 days, 3 h prediffusion at room temperature
[4] = 192 h, 360 μg in 5% P80, Experiment 2, disks stored 8 days, no prediffusion
[5] = 192 h, 2.5% P80, disks stored 8 days, prediffusion, read-out: Average zone diameter
[6] = 336 h, 5% P80, disks stored 14 days, prediffusion, read-out: Average zone diameter
[7] = 336 h, 10% P80, disks stored 14 days, prediffusion, read-out: Average zone diameter

## CN[C@H](CC(C)C)C(=O)N[C@H]1C(=O)N[C@@H](CC(N)=O)C(=O)N[C@H]2C(=O)N[C@H]3C(=O)N[C@H](C(=O)N[C@H](C(=O)O)c4cc(O)cc(O)c4-c4cc3ccc4O)[C@H](O[C@H]3C[C@](C)(N)[C@@H](O)[C@H](C)O3)c3ccc(c(Cl)c3)Oc3cc2cc(c3O[C@@H]2O[C@H](CO)[C@@H](O)[C@H](O)[C@H]2O[C@H]2C[C@](C)(NCc3ccc(-c4ccc(Cl)cc4)cc3)[C@@H](O)[C@H](C)O2)Oc2ccc(cc2Cl)[C@H]1O [oritavancin, N-(4-(4-chlorophenyl)benzyl)A82846B]
MRSA NRS121
  zone of inhibition at 360 µg/disc: 17.3 ± 0.4 mm
MRSA NRS123-ORI^RS; [1]
  zone of inhibition at 360 µg/disc: 14 mm
MRSA NRS123-ORI^RS; [2]
  zone of inhibition at 360 µg/disc: 15 mm
MRSA NRS123-ORI^RS; [3]
  zone of inhibition at 360 µg/disc: 15 mm
MRSA NRS123-ORI^RS; [4]
  zone of inhibition at 360 µg/disc: 14 mm
MSSA T972018; 360 μg in 5% P80, Average of experiments, no prediffusion
  zone of inhibition at 360 µg/disc: 15 ± 0.6 mm
MSSA T972018; 360 μg in 5% P80, Average of experiments, prediffusion
  zone of inhibition at 360 µg/disc: 17.4 ± 0.3 mm
MSSA T972018; 360 μg in 5% P80, Experiment 1, disks stored 14 days, 3 h prediffusion at room temperature
  zone of inhibition at 360 µg/disc: 17.5 mm
MSSA T972018; [3]
  zone of inhibition at 360 µg/disc: 17.3 ± 0.4 mm
MSSA T972018; [4]
  zone of inhibition at 360 µg/disc: 14.5 mm
MSSA T972018; 336 h, 360 μg in 5% P80, Experiment 1, disks stored 14 days, no prediffusion
  zone of inhibition at 360 µg/disc: 15.5 mm
MRSA NRS123; 360 μg in 5% P80, Average of experiments, no prediffusion, read-out: Zone diameter (mm ± SD)
  zone of inhibition at 360 µg/disc: 16 ± 0.4 mm
MRSA NRS123; 360 μg in 5% P80, Average of experiments, prediffusion, read-out: Zone diameter (mm ± SD)
  zone of inhibition at 360 µg/disc: 18.8 ± 0.9 mm
MRSA NRS123; 360 μg in 5% P80, Experiment 1, disks stored 14 days, 3 h prediffusion at room temperature, read-out: Zone diameter (mm ± SD)
  zone of inhibition at 360 µg/disc: 19.5 mm
MRSA NRS123; 360 μg in 5% P80, Experiment 2, disks stored 8 days, 3 h prediffusion at room temperature, read-out: Zone diameter (mm ± SD)
  zone of inhibition at 360 µg/disc: 18 mm
MRSA NRS123; [5]
  zone of inhibition at 90 µg/disc: 15.8 mm
  zone of inhibition at 180 µg/disc: 16.5 mm
MRSA NRS123; 192 h, 360 μg in 5% P80, Experiment 2, disks stored 8 days, no prediffusion, read-out: Zone diameter (mm ± SD)
  zone of inhibition at 360 µg/disc: 15.8 ± 0.4 mm
MRSA NRS123; 192 h, 360 μg oritavancin, 2.5% P80, disks stored 8 days, prediffusion, read-out: Average zone diameter
  zone of inhibition at 360 µg/disc: 16.8 mm
MRSA NRS123; [6]
  zone of inhibition at 90 µg/disc: 16 mm
  zone of inhibition at 180 µg/disc: 17.3 mm
MRSA NRS123; [7]
  zone of inhibition at 90 µg/disc: 15.5 mm
  zone of inhibition at 180 µg/disc: 17.3 mm
MRSA NRS123; 336 h, 360 μg in 5% P80, Experiment 1, disks stored 14 days, no prediffusion, read-out: Zone diameter (mm ± SD)
  zone of inhibition at 360 µg/disc: 16.3 ± 0.4 mm
MRSA NRS123; 336 h, 360 μg oritavancin, 5% P80, disks stored 14 days, prediffusion, read-out: Average zone diameter
  zone of inhibition at 360 µg/disc: 18.5 mm
MRSA NRS123; 336 h, 360 μg oritavancin, 10% P80, disks stored 14 days, prediffusion, read-out: Average zone diameter
  zone of inhibition at 360 µg/disc: 17.5 mm
MRSA NRS121-ORI^RS; [1]
  zone of inhibition at 360 µg/disc: 13 mm
MRSA NRS121-ORI^RS; [2]
  zone of inhibition at 360 µg/disc: 14 mm
MRSA NRS121-ORI^RS; [3]
  zone of inhibition at 360 µg/disc: 14 mm
MRSA NRS121-ORI^RS; [4]
  zone of inhibition at 360 µg/disc: 13 mm

Source: US8815535B2, “Disk diffusion assay for oritavancin” (The Medicines Company, priority 2011, dated 2014)
